For series [1], the target named is T1, TANK-2 enzyme (Homo sapiens, UniProt Q9H2K2).
T1 construct: inferred from capture on Ni-coated flash plate; made in house
T1 sequence (Q9H2K2 1-1166): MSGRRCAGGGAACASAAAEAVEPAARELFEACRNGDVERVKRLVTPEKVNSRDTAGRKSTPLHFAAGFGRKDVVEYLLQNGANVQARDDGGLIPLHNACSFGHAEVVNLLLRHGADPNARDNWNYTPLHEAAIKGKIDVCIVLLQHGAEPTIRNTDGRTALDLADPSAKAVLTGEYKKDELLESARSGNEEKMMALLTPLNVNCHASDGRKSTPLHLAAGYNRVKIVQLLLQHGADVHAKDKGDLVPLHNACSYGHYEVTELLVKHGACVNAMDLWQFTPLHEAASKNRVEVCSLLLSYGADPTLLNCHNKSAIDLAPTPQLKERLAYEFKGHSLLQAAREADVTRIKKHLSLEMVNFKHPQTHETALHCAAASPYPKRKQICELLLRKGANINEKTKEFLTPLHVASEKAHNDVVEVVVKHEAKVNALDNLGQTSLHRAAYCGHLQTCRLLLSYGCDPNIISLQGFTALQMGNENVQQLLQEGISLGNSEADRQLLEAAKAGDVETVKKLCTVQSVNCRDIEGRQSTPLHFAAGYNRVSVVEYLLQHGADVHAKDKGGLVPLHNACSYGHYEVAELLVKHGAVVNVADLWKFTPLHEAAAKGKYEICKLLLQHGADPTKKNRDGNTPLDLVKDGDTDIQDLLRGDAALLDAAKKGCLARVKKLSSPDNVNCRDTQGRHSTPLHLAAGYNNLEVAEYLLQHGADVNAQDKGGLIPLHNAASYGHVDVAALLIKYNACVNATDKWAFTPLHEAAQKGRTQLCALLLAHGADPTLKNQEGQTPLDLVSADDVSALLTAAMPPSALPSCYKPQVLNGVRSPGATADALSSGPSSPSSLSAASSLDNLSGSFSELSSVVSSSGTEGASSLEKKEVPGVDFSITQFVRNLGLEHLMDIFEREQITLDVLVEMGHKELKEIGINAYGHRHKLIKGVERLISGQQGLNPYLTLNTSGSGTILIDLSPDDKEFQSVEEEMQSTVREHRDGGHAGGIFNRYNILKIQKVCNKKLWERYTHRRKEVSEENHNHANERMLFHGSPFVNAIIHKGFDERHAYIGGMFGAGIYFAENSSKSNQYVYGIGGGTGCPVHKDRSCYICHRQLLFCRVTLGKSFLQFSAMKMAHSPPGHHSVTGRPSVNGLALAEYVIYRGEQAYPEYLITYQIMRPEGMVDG
The experiment in a line: In vitro scintillation proximity assay (SPA) for TANK-2 inhibitory activity. It counts as biochemical. The method, then:
In Vitro Scintillation Proximity Assay (SPA) for TANK-2 Inhibitory Activity
Compounds of the present invention were tested in an in vitro assay based on SPA technology with Ni Flash plates (96 or 384 well).
In principle, the assay relies upon SPA technology for the detection of auto-poly(ADP-ribosyl)ation of TANK-2 protein using [^3H]-nicotinamide adenine dinucleotide ([^3H]-NAD^+) as ADP-ribosyl donor.
A stock solution of [^3H]-NAD^+/NAD was made by adding 64.6 μl of [^3H]-NAD^+ (0.1 mCi/ml, supplier: Perkin Elmer) and 46.7 μl NAD-stock (10.7 mM, stored at −20° C., supplier Roche) to 1888.7 μl assay buffer (60 mM Tris/HCl, pH 7.4; 0.9 mM DTT; 6 mM MgCl2). The TANK-2 enzyme was produced as described in EP1238063. 60 μl of assay buffer, together with 1 μl of compound in DMSO, 20 μl of [^3H]-NAD^+/NAD and 20 μl of TANK-2 enzyme (final concentration 6 μg/ml) was added per well into a 96-well Ni-coated flash plate (Perkin Elmer). After incubation of the mixture for 120 min. at room temperature, the reaction was terminated by adding 60 μl of stopsolution (42.6 mg NAD in 6 ml H2O). The plates were covered with a plate sealer and placed in a TopCountNXT™ (Packard) for scintillation counting. Values were expressed as counts per minute (cpm). For each experiment, controls (containing TANK-2 enzyme and DMSO without compound), a blank incubation (containing DMSO but no TANK-2 enzyme or compound) and samples (containing TANK-2 enzyme and compound dissolved in DMSO) were run in parallel. All compounds tested were dissolved and eventually further diluted in DMSO. In first instance, compounds were tested at a concentration of 10^−5M. […] In each test, the blank value was subtracted from both the control and the sample values. The control sample represented maximal TANK-2 enzyme activity. For each sample, the amount of cpm was expressed as a percentage of the mean cpm value of the controls. When appropriate, IC50-values (concentration of the drug, needed to reduce the TANK-2 enzyme activity to 50% of the control) were computed using linear interpolation between the experimental points just above and below the 50% level. Herein the effects of test compounds are expressed as pIC50 (the negative log value of the IC50-value). As reference compounds, 3-aminobenzamide and 4-amino-1,8-naphtalimide were included to validate the SPA assay. Herein the assay was described using 96-well plates. In the assay using 384-well plates the same final concentrations were used and volumes were adapted.

[2] abbreviates: auto-poly(ADP-ribosyl)ation, [3H]-NAD+, 96- or 384-well Ni Flash plates, read-out: in vitro SPA TANK-2 pIC50 (converted).

Where two headings read alike, the source gives them in different places.

The melting point is the temperature, or range, at which the solid turns liquid.

Consider `O=C1NC(CCCN2CCC(n3c(=O)[nH]c4ccccc43)CC2)Nc2ccccc21` (stereo not drawn) [Compound 7], for which the IC50 in series [1] (setting [2]) was less than 10 µM.
Turning to `NC(=O)C1(c2ccccc2)CCN(CCCC2NC(=O)c3ccccc3N2)CC1` (stereo not drawn) [Compound 5], the melting point worked out at 216.1 °C. For the same molecule, the IC50 in series [1] (setting [2]) is more than 10 µM.
With `O=C1NCN(c2ccccc2)C12CCN(CCCc1nc3ccccc3c(=O)[nH]1)CC2` [Compound 2], the IC50 in series [1] (setting [2]) is more than 10 µM.
For `O=C1NC(CCN2CCC3(CC2)C(=O)NCN3c2ccccc2)Nc2ccccc21` (stereo not drawn) [Compound 6], in series [1] (setting [2]), the IC50 is 7.43 µM.
As to `NC(=O)C1(N2CCOCC2)CCN(CCCc2nc3ccccc3c(=O)[nH]2)CC1` [Compound 11], the IC50 in series [1] (setting [2]) is more than 10 µM.
Take `O=C1NC(CCN2CCC(n3c(=O)[nH]c4ccccc43)CC2)Nc2ccccc21` (stereo not drawn) [Compound 13]: in series [1], the IC50 is 0.938 µM.
`O=C(c1ccc(F)cc1)C1CCN(CCc2nc3ccccc3c(=O)[nH]2)CC1` [Compound 9]: the IC50 in series [1] (setting [2]) is more than 10 µM.
For the molecule `O=C(NC1CCN(CCCC2NC(=O)c3ccccc3N2)CC1)c1ccccc1` (stereo not drawn) [Compound 8], the IC50 in series [1] (setting [2]) was more than 10 µM.
In turn, `O=C(CC1CCN(CCc2nc3ccccc3c(=O)[nH]2)CC1)c1ccc(F)cc1` [Compound 3] had a melting point of 159.1 °C. In addition, in series [1] (setting [2]), the IC50 is 2.48 µM.
`O=C(NC1CCN(CCCc2nc3ccccc3c(=O)[nH]2)CC1)c1ccccc1` [Compound 12]: in series [1] (setting [2]), the IC50 was more than 10 µM.
In the case of `O=C(c1ccc(F)cc1)C1CCN(CCCc2nc3ccccc3c(=O)[nH]2)CC1` [Compound 14], the IC50 in series [1] (setting [2]) is more than 10 µM.
In turn, `NC(=O)C1(c2ccccc2)CCN(CCCc2nc3ccccc3c(=O)[nH]2)CC1` [Compound 4] had a melting point of 138.9 °C. Moreover, the IC50 in series [1] (setting [2]) was more than 10 µM.

Source of the values: patent US7875621B2, “Substituted 2-alkyl quinazolinone derivatives as PARP inhibitors” (Janssen Pharmaceutica NV, priority 2004, dated 2011).
